# Measured values as given in PubChem BioAssay AID248 (DTP/NCI, 2004).
# Several values for one entry are separate records, joined by “and”; a condition that tells them apart may be missing. Identical values can stand only once. Inconclusive results and toxic doses are left out.
# System: L1210 leukemia ip in BDF1 mice, survival T/C
# Test: NCI In Vivo Anticancer Drug Screen. Data for tumor model L1210 Leukemia (intraperitoneal) in B6D2F1 (BDF1) mice
# Conditions: endpoint: mean survival time, higher = longer survival
# In short: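 Mice bearing the transplanted tumor received compound or vehicle. Survival of the treated group was divided by that of the vehicle-treated control group to give the ratio.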
# [1] = dose: 100.0 mg/kg/injection, schedule: Q01DX001 (ip), vehicle: carboxymethylcellulose (CMC)
# [2] = dose: 400.0 mg/kg/injection, schedule: Q01DX001 (ip), vehicle: carboxymethylcellulose (CMC)
# [3] = dose: 100.0 mg/kg/injection, schedule: Q04DX003 (ip), vehicle: Klucel (hydroxypropylcellulose) (HPC)
# [4] = dose: 200.0 mg/kg/injection, schedule: Q04DX003 (ip), vehicle: Klucel (hydroxypropylcellulose) (HPC)
# [5] = dose: 100.0 mg/kg/injection, schedule: Q01DX009 (ip), vehicle: Klucel (hydroxypropylcellulose) (HPC)
# [6] = dose: 200.0 mg/kg/injection, schedule: Q01DX001 (ip), vehicle: carboxymethylcellulose (CMC)
# [7] = dose: 50.0 mg/kg/injection, schedule: Q04DX002 (ip), vehicle: Klucel (hydroxypropylcellulose) (HPC)
# [8] = dose: 100.0 mg/kg/injection, schedule: Q04DX002 (ip), vehicle: Klucel (hydroxypropylcellulose) (HPC)
compound,measurement,setting,value
CC(Cl)CN(N=O)C(=O)NC1CCCCC1 (stereo unspecified),T/C,"dose: 16.0 mg/kg/injection, schedule: Q01DX001 (ip), vehicle: other",96 % of control
same,T/C,"dose: 31.0 mg/kg/injection, schedule: Q01DX001 (ip), vehicle: other",104 % of control
same,T/C,"dose: 62.0 mg/kg/injection, schedule: Q01DX001 (ip), vehicle: other",102 % of control
same,T/C,"dose: 125.0 mg/kg/injection, schedule: Q01DX001 (ip), vehicle: other",104 % of control
same,T/C,"dose: 187.0 mg/kg/injection, schedule: Q01DX001 (ip), vehicle: other",117 % of control
same,T/C,"dose: 250.0 mg/kg/injection, schedule: Q01DX001 (ip), vehicle: other",94 % of control
same,T/C,"dose: 375.0 mg/kg/injection, schedule: Q01DX001 (ip), vehicle: other",122 % of control
same,T/C,"dose: 500.0 mg/kg/injection, schedule: Q01DX001 (ip), vehicle: other",167 % of control
same,T/C,"dose: 750.0 mg/kg/injection, schedule: Q01DX001 (ip), vehicle: other",187 % of control
CCOc1ccc(-n2c(O)c(N=Nc3ccccc3)c(=O)n(-c3ccccc3)c2=S)cc1,T/C,"dose: 50.0 mg/kg/injection, schedule: Q04DX003 (ip), vehicle: acetone",94 % of control
same,T/C,"dose: 100.0 mg/kg/injection, schedule: Q04DX003 (ip), vehicle: acetone",89 % of control
same,T/C,"dose: 200.0 mg/kg/injection, schedule: Q04DX003 (ip), vehicle: acetone",96 % of control
C=CCOc1ccnc(SC)n1,T/C,"dose: 75.0 mg/kg/injection, schedule: Q01DX009 (ip), vehicle: Klucel (hydroxypropylcellulose) (HPC)",98 % of control
same,T/C,"dose: 150.0 mg/kg/injection, schedule: Q01DX009 (ip), vehicle: Klucel (hydroxypropylcellulose) (HPC)",103 % of control
same,T/C,"dose: 300.0 mg/kg/injection, schedule: Q01DX009 (ip), vehicle: Klucel (hydroxypropylcellulose) (HPC)",90 % of control
CN=C(N)N(C)/N=C(C)\C=N\N(C)C(N)=NC,T/C,"dose: 15.0 mg/kg/injection, schedule: Q01DX Z (ip), vehicle: carboxymethylcellulose (CMC)",98 % of control
same,T/C,"dose: 30.0 mg/kg/injection, schedule: Q01DX Z (ip), vehicle: carboxymethylcellulose (CMC)",96 % of control
same,T/C,"dose: 60.0 mg/kg/injection, schedule: Q01DX Z (ip), vehicle: carboxymethylcellulose (CMC)",101 % of control
same,T/C,"dose: 120.0 mg/kg/injection, schedule: Q01DX Z (ip), vehicle: carboxymethylcellulose (CMC)",113 % of control
same,T/C,"dose: 240.0 mg/kg/injection, schedule: Q01DX Z (oral), vehicle: carboxymethylcellulose (CMC)",104 % of control
same,T/C,"dose: 480.0 mg/kg/injection, schedule: Q01DX Z (oral), vehicle: carboxymethylcellulose (CMC)",104 % of control
CCOC(=O)C(Cc1ccc(N(CCCl)CCCl)cc1)NP1(=O)NCCCO1 (stereo unspecified),T/C,"dose: 2.0 mg/kg/injection, schedule: Q01DX015 (ip), vehicle: carboxymethylcellulose (CMC)",123 % of control
same,T/C,"dose: 14.0 mg/kg/injection, schedule: Q01DX015 (ip), vehicle: carboxymethylcellulose (CMC)",92 % of control
same,T/C,"dose: 18.0 mg/kg/injection, schedule: Q01DX015 (ip), vehicle: other",167 % of control
same,T/C,"dose: 28.14 mg/kg/injection, schedule: Q01DX015 (ip), vehicle: carboxymethylcellulose (CMC)",117 % of control
same,T/C,"dose: 30.0 mg/kg/injection, schedule: Q01DX015 (ip), vehicle: other",156 % of control
same,T/C,"dose: 48.0 mg/kg/injection, schedule: Q01DX015 (ip), vehicle: carboxymethylcellulose (CMC)",94 % of control
same,T/C,"dose: 50.0 mg/kg/injection, schedule: Q01DX015 (ip), vehicle: other",109 % of control
same,T/C,[1],111 % of control
same,T/C,"dose: 100.0 mg/kg/injection, schedule: Q01DX001 (ip), vehicle: other",160 % of control
same,T/C,[2],115 % of control
CC(=O)COC(=O)c1ccc(N(C)CC(C)=O)cc1,T/C,[3],95 % of control
same,T/C,[4],86 % of control
same,T/C,"dose: 400.0 mg/kg/injection, schedule: Q04DX003 (ip), vehicle: Klucel (hydroxypropylcellulose) (HPC)",93 % of control
O[Si](O)([O][Sn]([c]1ccccc1)([c]1ccccc1)[c]1ccccc1)[O][Sn]([c]1ccccc1)([c]1ccccc1)[c]1ccccc1,T/C,"dose: 25.0 mg/kg/injection, schedule: Q01DX009 (ip), vehicle: saline with Tween-80",106 % of control
same,T/C,"dose: 50.0 mg/kg/injection, schedule: Q01DX009 (ip), vehicle: saline",96 % of control
CC(=O)Nc1ccc(NC(=O)NCCCl)cc1,T/C,"dose: 50.0 mg/kg/injection, schedule: Q01DX009 (ip), vehicle: Klucel (hydroxypropylcellulose) (HPC)",96 % of control
same,T/C,[5],99 % of control
same,T/C,[3],103 % of control
same,T/C,"dose: 200.0 mg/kg/injection, schedule: Q01DX009 (ip), vehicle: Klucel (hydroxypropylcellulose) (HPC)",89 % of control
same,T/C,[4],100 % of control
ICC1COC(CI)CO1 (stereo unspecified),T/C,[1],97 % of control
same,T/C,[6],111 % of control and 95 % of control
same,T/C,[2],95 % of control and 97 % of control
Br/C=C\c1ccccc1,T/C,"dose: 50.0 mg/kg/injection, schedule: Q01DX009 (ip), vehicle: acetone",86 % of control
same,T/C,"dose: 100.0 mg/kg/injection, schedule: Q01DX009 (ip), vehicle: saline",107 % of control
same,T/C,"dose: 100.0 mg/kg/injection, schedule: Q04DX003 (ip), vehicle: saline",97 % of control
same,T/C,"dose: 200.0 mg/kg/injection, schedule: Q01DX009 (ip), vehicle: acetone",95 % of control
same,T/C,"dose: 200.0 mg/kg/injection, schedule: Q04DX003 (ip), vehicle: saline",94 % of control
same,T/C,"dose: 400.0 mg/kg/injection, schedule: Q04DX003 (ip), vehicle: saline",98 % of control
CCOC(=O)c1[nH]c(C)c(CCC(=O)O)c1C,T/C,"dose: 12.0 mg/kg/injection, schedule: Q04DX003 (ip), vehicle: Klucel (hydroxypropylcellulose) (HPC)",95 % of control
same,T/C,"dose: 25.0 mg/kg/injection, schedule: Q04DX003 (ip), vehicle: Klucel (hydroxypropylcellulose) (HPC)",98 % of control
same,T/C,"dose: 50.0 mg/kg/injection, schedule: Q04DX003 (ip), vehicle: Klucel (hydroxypropylcellulose) (HPC)",104 % of control
same,T/C,"dose: 100.0 mg/kg/injection, schedule: Q01DX001 (ip), vehicle: Klucel (hydroxypropylcellulose) (HPC)",97 % of control
same,T/C,[3],103 % of control
same,T/C,"dose: 200.0 mg/kg/injection, schedule: Q01DX001 (ip), vehicle: Klucel (hydroxypropylcellulose) (HPC)",97 % of control
same,T/C,[4],98 % of control
same,T/C,"dose: 400.0 mg/kg/injection, schedule: Q01DX001 (ip), vehicle: Klucel (hydroxypropylcellulose) (HPC)",101 % of control
[O-]c1c[n+](-c2ccc(Cl)cc2Cl)no1,T/C,[7],100 % of control
same,T/C,[5],100 % of control
same,T/C,[8],106 % of control
same,T/C,"dose: 200.0 mg/kg/injection, schedule: Q04DX002 (ip), vehicle: Klucel (hydroxypropylcellulose) (HPC)",103 % of control
CC(=O)NC1=C(Oc2ccc(C)cc2)C(=O)c2ccccc2C1=O,T/C,"dose: 75.0 mg/kg/injection, schedule: Q01DX001 (ip), vehicle: saline",98 % of control
same,T/C,"dose: 150.0 mg/kg/injection, schedule: Q01DX001 (ip), vehicle: saline",96 % of control
COc1ccc(/C=C(\C(=O)c2ccc(O)cc2)c2ccccc2)cc1OC,T/C,[1],94 % of control
same,T/C,[6],89 % of control
same,T/C,[2],89 % of control
CCOC(=O)COc1cc(N)c(Cl)cc1Cl,T/C,"dose: 100.0 mg/kg/injection, schedule: Q04DX002 (ip), vehicle: gum acacia",95 % of control
same,T/C,"dose: 200.0 mg/kg/injection, schedule: Q04DX002 (ip), vehicle: gum acacia",95 % of control
same,T/C,"dose: 400.0 mg/kg/injection, schedule: Q04DX002 (ip), vehicle: gum acacia",92 % of control
NCCCNCCCN,T/C,"dose: 25.0 mg/kg/injection, schedule: Q04DX002 (ip), vehicle: Klucel (hydroxypropylcellulose) (HPC)",103 % of control
same,T/C,[7],97 % of control
same,T/C,[8],103 % of control and 117 % of control
COc1cc2c(cc1OC)-c1cc3ccc(OC)c(OC)c3c[n+]1CC2,T/C,"dose: 6.25 mg/kg/injection, schedule: Q04DX003 (ip), vehicle: saline",105 % of control
same,T/C,"dose: 12.5 mg/kg/injection, schedule: Q04DX003 (ip), vehicle: saline",101 % of control
same,T/C,"dose: 25.0 mg/kg/injection, schedule: Q04DX003 (ip), vehicle: saline",103 % of control
